Experimental data reported in PMC5748531, “Antimycobacterial Activities of N-Substituted-Glycinyl 1H-1,2,3-Triazolyl Oxazolidinones and Analytical Method Development and Validation for a Representative Compound” (Scientia Pharmaceutica, 2017).
Values after ≈ are worked out from the molar mass of the structure shown.

Experiments:
Assay in all cases: microbe, parasite or virus in culture
Type in all cases: cell-based, Mycobacterium tuberculosis
[1] = test system: ofloxacin (OFX)-resistant Mtb (SRI 4000); details: for MIC: Mycobacterium tuberculosis, 168 h, read-out: MIC OFX-R, broth microdilution, 7 days at 37 °C; for MIC OFX-R: broth microdilution, 7 days at 37 °C
[2] = test system: isoniazid (INH)-resistant Mtb (SRI 1369); details: for MIC: Mycobacterium tuberculosis, 168 h, read-out: MIC INH-R, broth microdilution, 7 days at 37 °C
[3] = test system: rifampin (RMP)-resistant Mtb (SRI 1367); details: for MIC: Mycobacterium tuberculosis, 168 h, read-out: MIC RMP-R, broth microdilution, 7 days at 37 °C
[4] = broth microdilution, 7 days at 37 °C

SMILES | MIC [1] | MIC [2] | MIC OFX-R [1] | MIC [3] | MIC RMP-R [3, 4] | MIC INH-R [2, 4]
CO[C@H]1/C=C/O[C@@]2(C)Oc3c(C)c(O)c4c(O)c(c(/C=N/N5CCN(C)CC5)c(O)c4c3C2=O)NC(=O)/C(C)=C\C=C\[C@H](C)[C@H](O)[C@@H](C)[C@@H](O)[C@@H](C)[C@H](OC(C)=O)[C@@H]1C [RMP, Rifampicin, reference compound] | 0.95 µM (≈ 0.782 µg/mL) | 0.06 µM (≈ 0.0494 µg/mL) |  |  |  | 
Cc1cn(CC2CN(c3ccc(N4CCN(C(=O)CNC(=O)c5ccc([N+](=O)[O-])o5)CC4)c(F)c3)C(=O)O2)nn1 (stereo not drawn) [PH-145] | 0.03 to 0.056 µM (≈ 0.0167 to 0.0312 µg/mL) | 0.056 to 0.11 µM (≈ 0.0312 to 0.0612 µg/mL) | 0.056 µM (≈ 0.0312 µg/mL) | 0.11 to 0.46 µM (≈ 0.0612 to 0.256 µg/mL) | 0.11 µM (≈ 0.0612 µg/mL) | 
Cc1cn(CC2CN(c3ccc(N4CCN(C(=O)CNC(=O)c5cccnc5)CC4)c(F)c3)C(=O)O2)nn1 (stereo not drawn) [PH-185] | 1.44 µM (≈ 0.752 µg/mL) | 2.9 µM (≈ 1.52 µg/mL) |  | 5.7 µM (≈ 2.98 µg/mL) |  | 
CCOC(=O)CC(=O)NCC(=O)N1CCN(c2ccc(N3CC(Cn4ccnn4)OC3=O)cc2F)CC1 (stereo not drawn) [PH-169] | 1.45 µM (≈ 0.75 µg/mL) | 1.45 to 2.9 µM (≈ 0.75 to 1.5 µg/mL) |  | 1.45 µM (≈ 0.75 µg/mL) |  | 
CCOC(=O)CC(=O)NCC(=O)N1CCN(c2ccc(N3CC(Cn4cc(C)nn4)OC3=O)cc2F)CC1 (stereo not drawn) [PH-150] | 2.9 µM (≈ 1.54 µg/mL) | 2.9 µM (≈ 1.54 µg/mL) |  | 2.9 µM (≈ 1.54 µg/mL) |  | 
Cc1cn(CC2CN(c3ccc(N4CCN(C(=O)CN)CC4)c(F)c3)C(=O)O2)nn1 (stereo not drawn) [PH-151] | 11.6 µM (≈ 4.84 µg/mL) | 11.6 µM (≈ 4.84 µg/mL) |  | 5.8 µM (≈ 2.42 µg/mL) |  | 
Cc1cn(CC2CN(c3ccc(N4CCN(C(=O)CNC(=O)c5cc([N+](=O)[O-])cc([N+](=O)[O-])c5)CC4)c(F)c3)C(=O)O2)nn1 (stereo not drawn) [PH-181] | 0.82 µM (≈ 0.501 µg/mL) | 0.85 to 1.64 µM (≈ 0.52 to 1 µg/mL) |  | 0.82 µM (≈ 0.501 µg/mL) |  | 
Cc1cn(CC2CN(c3ccc(N4CCN(C(=O)CNC(=O)C(Cl)Cl)CC4)c(F)c3)C(=O)O2)nn1 (stereo not drawn) [PH-182] | 0.47 µM (≈ 0.248 µg/mL) | 0.95 µM (≈ 0.502 µg/mL) |  | 0.95 µM (≈ 0.502 µg/mL) |  | 
O=C(NCC(=O)N1CCN(c2ccc(N3CC(Cn4ccnn4)OC3=O)cc2F)CC1)c1cccnc1 (stereo not drawn) [PH-195] | 0.49 µM (≈ 0.249 µg/mL) | 2 µM (≈ 1.02 µg/mL) |  | 0.98 µM (≈ 0.498 µg/mL) |  | 
O=C(NCC(=O)N1CCN(c2ccc(N3CC(Cn4ccnn4)OC3=O)cc2F)CC1)c1cc([N+](=O)[O-])cc([N+](=O)[O-])c1 (stereo not drawn) [PH-193] | 0.052 µM (≈ 0.0311 µg/mL) | 0.42 µM (≈ 0.251 µg/mL) |  | 0.22 µM (≈ 0.131 µg/mL) |  | 
CC(=O)NCC(=O)N1CCN(c2ccc(N3CC(Cn4ccnn4)OC3=O)cc2F)CC1 (stereo not drawn) [PH-165] | 3.4 µM (≈ 1.51 µg/mL) | 4.5 µM (≈ 2 µg/mL) |  | 6.7 µM (≈ 2.98 µg/mL) |  | 
NNC(=O)c1ccncc1 [INH, Isoniazid, reference compound] |  |  |  | 0.15 µM (≈ 0.0206 µg/mL) |  | 
O=C(NCC(=O)N1CCN(c2ccc(N3CC(Cn4ccnn4)OC3=O)cc2F)CC1)c1ccc([N+](=O)[O-])o1 (stereo not drawn) [PH-189] | 0.03 to 0.056 µM (≈ 0.0163 to 0.0304 µg/mL) | 0.056 to 0.11 µM (≈ 0.0304 to 0.0597 µg/mL) | 0.03 µM (≈ 0.0163 µg/mL) |  |  | 0.057 to 0.12 µM
NCC(=O)N1CCN(c2ccc(N3CC(Cn4ccnn4)OC3=O)cc2F)CC1 (stereo not drawn) [PH-172] | 3.6 µM (≈ 1.45 µg/mL) | 7.2 µM (≈ 2.9 µg/mL) |  | 3.6 µM (≈ 1.45 µg/mL) |  | 
